Tests used:
[1] = system: adult patients with type 2 diabetes mellitus with albuminuria; assay: Phase 2 study: change from baseline in urine albumin to creatinine ratio (UACR); type: in vivo, human; conditions: for Between PRL and PBO Group Geometric Mean % Change UACR from Baseline: placebo adjusted; for UACR: Mean CFB at Weeks 8 & 12, Placebo Adjusted / UACR: Mean CFB at Weeks 8 & 12, Within Group: text b231-232 says Week 12
Text: A Multicenter, Randomized, Double-blind, Placebo-controlled, Phase2 Study to Evaluate the Safety and Efficacy of IW-1973 in Patients with Type 2 Diabetes with Albuminuria Treated with Renin-Angiotensin System Inhibitors
The primary objectives of this clinical study (Clinical Trials.gov Identifier NCT03217591) were to assess the safety and tolerability and to evaluate the effect of oral IW-1973 on renal function when administered daily for approximately 12 weeks to adult patients with type 2 diabetes mellitus with albuminuria who were on a stable regimen of renin-angiotensin system inhibitors ([…] or ARBs).
The primary efficacy endpoint of this trial was the change from baseline in Urine Albumin to Creatinine Ratio (UACR) at Weeks 8 and 12. UACR was determined as the concentration of urine albumin [mg/dL] divided by the concentration of urine creatinine [g/dL]) from urinalysis. First morning void urine samples were collected. To reduce variability, the measurement of UACR was the average of 2-first morning void tests at each timepoint.
(§1) This multicenter, randomized, double-blind, placebo-controlled, parallel-group study evaluated 2 dose levels of IW-1973 compared with placebo. The study population consisted of adult patients with type 2 diabetes mellitus, albuminuria, and impaired renal function. Patients had to have been taking antihyperglycemic medications for at least 12 weeks with their regimen being stable (ie, drug and dose) for at least 28 days before the Randomization Visit. Additionally, patients had to have been on a stable regimen of angiotensin-converting enzyme inhibitor (ACEi) or an angiotensin receptor blocker (ARB), for at least 28 days before the Randomization Visit. For more details, see Inclusion Criteria below. A total of 156 patients (approximately 50 patients per arm) were stratified by baseline estimated glomerular filtration rate (eGFR) into three groups: eGFR 30 to 45, >45 to 60, and >60 to 75 mL/min/1.73 m^2) and randomized approximately 1:1:1 to total daily 20 mg IW-1973, 40 mg IW-1973, or placebo.
Treatment Period: The Treatment Period began on Day 1 at Randomization (there was no Day 0) and ended after the End of Treatment Visit on Day 87 (±3). Patients were stratified in one of three groups by baseline eGFR (ie, eGFR 30 to 45, >45 to 60, and >60 to 75 mL/min/1.73 m2) and randomized in an approximate1:1:1 ratio to receive 20 mg IW-1973, 40 mg IW-1973, or placebo for approximately 12 weeks.
Dosing on Days 1 to 7 (±1) was BID (twice daily), morning and evening; dosing on Day 8 (±1) and onward was QD (once daily), 2 tablets in the morning. At the Randomization Visit on Day 1, patients received their morning dose of study drug in the clinic and underwent safety, efficacy, and pharmacokinetic (PK) assessments, including blood and urine collections at prespecified times. Patients stayed in the clinic at least 6 hours postdose and were able to leave the clinic at the Investigator's discretion following all study procedures. At the Week 1 Visit on Day 8 (±1), patients returned to the clinic and received their first QD dose of study drug in the clinic. Patients underwent safety, efficacy, and PK assessments, including blood and urine collections at prespecified times. Patients stayed in the clinic at least 6 hours postdose and were able to leave the clinic at the Investigator's discretion following all study procedures. At the Week 4 (Day 29±3), Week 8 (Day 57±3), and End of Treatment (Day 87±3) Visits, patients returned to the clinic for study drug administration; safety, efficacy, and PK assessments; and study drug supply, if applicable.
One week at 10 mg BID followed by 20 mg QD for the remainder of the trial, i.e., a 20 mg total daily dosage; or
One week at 20 mg BID, followed by 40 mg QD for the remainder of the trial, i.e., a 40 mg total daily dosage.

[2] = system: adult patients with type 2 diabetes mellitus with albuminuria; assay: Phase 2 study: hemoglobin A1c; type: in vivo, human; conditions: for Hemoglobin A1c: Between PRL and PBO Group LS Mean Change from Baseline at week 12 / Hemoglobin A1c: Within Group LS Mean Change from Baseline at Week 12: ITT
Text: Other secondary objectives of this clinical study included the evaluation of the pharmacokinetic (PK) concentrations of oral IW-1973 and the exploration of the effect of oral IW-1973 on hemodynamics and metabolic effects when administered daily for approximately 12 weeks to adult patients with type 2 diabetes mellitus with albuminuria (i.e., DN patients) who were on a stable regimen of renin-angiotensin system inhibitors (RAAS inhibitors, i.e., ACEi's and ARBs).
Clinical laboratory assessments obtained during the performance of this clinical trial included: complete blood count, serum chemistry panel, urinalysis, coagulation panel, estimated glomerular filtration rate (eGFR; determined by the Chronic Kidney Disease Epidemiology Collaboration [CKD-EPI] creatinine equation), hemoglobin A1c (HbA1C), Homeostatic Model Assessment to estimate insulin resistance (HOMA-IR), platelet function assessment (using VerifyNow®, at a subset of sites), urine pregnancy, and screens for hepatitis, human immunodeficiency virus, and drugs of abuse.
as §1

[3] = ITT, Week 12, PRL 20 mg total daily
[4] = ITT, Week 12, PRL 40 mg total daily
[5] = ITT, Weeks 8 & 12, PRL 20 mg total daily

OC(CNc1nc(-c2cc(-c3ccon3)n(Cc3ccccc3F)n2)ncc1F)(C(F)(F)F)C(F)(F)F [Compound I, praliciguat]
Within Group Geometric Mean % Change UACR from Baseline [1, 3]: −35.2%
Between PRL and PBO Group Geometric Mean % Change UACR from Baseline [1, 3]: −23.9%
Within Group Geometric Mean % Change UACR from Baseline [1, 4]: −26.4%
Between PRL and PBO Group Geometric Mean % Change UACR from Baseline [1, 4]: −13.6%
Within Group Geometric Mean % Change UACR from Baseline ([1]; ITT, Week 12, PRL Combined): −30.9%
Between PRL and PBO Group Geometric Mean % Change UACR from Baseline ([1]; ITT, Week 12, PRL Combined): −18.9%
Within Group Geometric Mean % Change UACR from Baseline [1, 5]: −28.4%
Between PRL and PBO Group Geometric Mean % Change UACR from Baseline [1, 5]: −16.0%
Within Group Geometric Mean % Change UACR from Baseline ([1]; ITT, Weeks 8 & 12, PRL 40 mg total daily): −27.3%
Within Group Geometric Mean % Change UACR from Baseline ([1]; ITT, Weeks 8 & 12, PRL Combined (20 and 40 mg)): −27.8%
placebo-adjusted reduction (mean percent decrease) from baseline in UACR ([1]; ITT, combined praliciguat groups, Weeks 8 and 12): 15%
reduction from baseline in UACR ([1]; ITT, combined praliciguat groups, over 12 weeks (weeks 8 and 12)): 28%
UACR Mean % CFB at Weeks 8 & 12, Placebo Adjusted ([1]; mITT Population, PRL 20 mg): −14.8%
UACR Mean % CFB at Weeks 8 & 12, Within Group ([1]; mITT Population, PRL 20 mg): −18.4%
UACR: Mean CFB at Weeks 8 & 12, Placebo Adjusted ([1]; mITT Population, PRL 20 mg): −21.5%
UACR: Mean CFB at Weeks 8 & 12, Within Group ([1]; mITT Population, PRL 20 mg): −24.7%
UACR Mean % CFB at Weeks 8 & 12, Placebo Adjusted ([1]; mITT Population, PRL 40 mg): −25.1%
UACR Mean % CFB at Weeks 8 & 12, Within Group ([1]; mITT Population, PRL 40 mg): −28.3%
UACR: Mean CFB at Weeks 8 & 12, Placebo Adjusted ([1]; mITT Population, PRL 40 mg): −24.2%
UACR: Mean CFB at Weeks 8 & 12, Within Group ([1]; mITT Population, PRL 40 mg): −27.4%
UACR Mean % CFB at Weeks 8 & 12, Placebo Adjusted ([1]; mITT Population, PRL Combined): −20.1%
UACR Mean % CFB at Weeks 8 & 12, Within Group ([1]; mITT Population, PRL Combined): −23.5%
UACR: Mean CFB at Weeks 8 & 12, Placebo Adjusted ([1]; mITT Population, PRL Combined): −22.9%
UACR: Mean CFB at Weeks 8 & 12, Within Group ([1]; mITT Population, PRL Combined): −26.1%
placebo-adjusted mean percent decrease in UACR ([1]; mITT Population, combined praliciguat treatment groups, Week 12): 23%
placebo-adjusted mean percent decrease from baseline in UACR ([1]; mITT Population, combined praliciguat treatment groups, Weeks 8 and 12): 20%
placebo-corrected mean reduction from baseline in UACR ([1]; mITT, participants with eGFR 30-45 mL/min/1.73 m^2 at baseline, 12-week treatment): 30-40%
decrease in mean HbA1c levels compared to placebo ([2]; 12 weeks of treatment): ~0.3%
Hemoglobin A1c: Between PRL and PBO Group LS Mean Change from Baseline at week 12 ([2]; PRL 20 mg): −0.23%
Hemoglobin A1c: Within Group LS Mean Change from Baseline at Week 12 ([2]; PRL 20 mg): −0.26%
Hemoglobin A1c: Between PRL and PBO Group LS Mean Change from Baseline at week 12 ([2]; PRL 40 mg): −0.30%
Hemoglobin A1c: Within Group LS Mean Change from Baseline at Week 12 ([2]; PRL 40 mg): −0.38%
Hemoglobin A1c: Between PRL and PBO Group LS Mean Change from Baseline at week 12 ([2]; PRL Combined): −0.27%
Hemoglobin A1c: Within Group LS Mean Change from Baseline at Week 12 ([2]; PRL Combined): −0.34%
